Assays:
Format in all cases: biochemical
DPP4 = DPP4 (Homo sapiens, UniProt P27487); test: DPP4 inhibition, fluorogenic substrate H-Gly-Pro-AMC; parameters: purchased R&D Systems; conditions: recombinant human DPP4
recombinant human DPP7 = molecular target: T1, recombinant human DPP7 (Homo sapiens, UniProt Q9UHL4); test: DPP7 inhibition, fluorogenic substrate Lys-Pro-AMC; conditions: recombinant human DPP7
T1 construct: purchased R&D Systems
In short: (§1)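 Inhibitors are titrated in an 8-point series into the enzyme's assay buffer (DMSO no more than 0.5%). Substrate cleavage at 25 °C is followed by fluorescence, excitation 380 nm and emission 460 nm. IC50 values come from a four-variable logistic model.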

Recombinant human FAP = molecular target: T2, Recombinant human FAP (Homo sapiens, UniProt Q12884); test: FAP inhibition, fluorogenic substrate Z-Gly-Pro-AMC; conditions: recombinant human FAP, substrate Z-Gly-Pro-AMC
T2 construct: purchased R&D systems
T2 sequence (Q12884 1-760): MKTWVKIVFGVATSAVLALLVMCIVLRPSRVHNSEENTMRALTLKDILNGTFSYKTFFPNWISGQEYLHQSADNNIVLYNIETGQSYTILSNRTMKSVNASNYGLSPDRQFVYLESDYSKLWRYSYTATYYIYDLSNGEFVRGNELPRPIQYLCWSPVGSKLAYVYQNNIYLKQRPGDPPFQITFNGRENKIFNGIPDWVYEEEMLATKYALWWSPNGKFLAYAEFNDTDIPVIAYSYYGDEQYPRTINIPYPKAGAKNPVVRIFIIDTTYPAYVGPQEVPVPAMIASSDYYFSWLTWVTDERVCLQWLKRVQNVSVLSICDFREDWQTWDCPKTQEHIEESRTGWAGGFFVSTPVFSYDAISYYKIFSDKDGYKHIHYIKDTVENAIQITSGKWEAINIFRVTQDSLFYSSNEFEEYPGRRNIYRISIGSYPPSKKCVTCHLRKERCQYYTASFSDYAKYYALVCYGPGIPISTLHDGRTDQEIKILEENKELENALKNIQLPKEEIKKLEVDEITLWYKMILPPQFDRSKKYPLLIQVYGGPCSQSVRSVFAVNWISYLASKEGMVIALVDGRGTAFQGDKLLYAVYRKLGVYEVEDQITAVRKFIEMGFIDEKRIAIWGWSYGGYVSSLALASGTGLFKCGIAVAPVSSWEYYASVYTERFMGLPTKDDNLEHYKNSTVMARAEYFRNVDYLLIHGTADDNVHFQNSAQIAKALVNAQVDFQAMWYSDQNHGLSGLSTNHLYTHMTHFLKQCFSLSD
In short: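 Eight-point compound dilutions (≤0.1% DMSO) were incubated at 25° C with 10 ng recombinant human FAP in Tris pH 7.5/1 M NaCl/BSA buffer and Z-Gly-Pro-AMC. Inhibition was taken as % drop in fluorescence rate (380/460 nm) against uninhibited control; IC50 came from a four-parameter logistic fit.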

recombinant human DPP8 = molecular target: T3, recombinant human DPP8 (Homo sapiens, UniProt Q6V1X1); test: DPP8 inhibition, fluorogenic substrate Z-Ala-Pro-AMC; conditions: recombinant human DPP8
T3 construct: purchased PBS Bioscience
T3 sequence (Q6V1X1 whole entry): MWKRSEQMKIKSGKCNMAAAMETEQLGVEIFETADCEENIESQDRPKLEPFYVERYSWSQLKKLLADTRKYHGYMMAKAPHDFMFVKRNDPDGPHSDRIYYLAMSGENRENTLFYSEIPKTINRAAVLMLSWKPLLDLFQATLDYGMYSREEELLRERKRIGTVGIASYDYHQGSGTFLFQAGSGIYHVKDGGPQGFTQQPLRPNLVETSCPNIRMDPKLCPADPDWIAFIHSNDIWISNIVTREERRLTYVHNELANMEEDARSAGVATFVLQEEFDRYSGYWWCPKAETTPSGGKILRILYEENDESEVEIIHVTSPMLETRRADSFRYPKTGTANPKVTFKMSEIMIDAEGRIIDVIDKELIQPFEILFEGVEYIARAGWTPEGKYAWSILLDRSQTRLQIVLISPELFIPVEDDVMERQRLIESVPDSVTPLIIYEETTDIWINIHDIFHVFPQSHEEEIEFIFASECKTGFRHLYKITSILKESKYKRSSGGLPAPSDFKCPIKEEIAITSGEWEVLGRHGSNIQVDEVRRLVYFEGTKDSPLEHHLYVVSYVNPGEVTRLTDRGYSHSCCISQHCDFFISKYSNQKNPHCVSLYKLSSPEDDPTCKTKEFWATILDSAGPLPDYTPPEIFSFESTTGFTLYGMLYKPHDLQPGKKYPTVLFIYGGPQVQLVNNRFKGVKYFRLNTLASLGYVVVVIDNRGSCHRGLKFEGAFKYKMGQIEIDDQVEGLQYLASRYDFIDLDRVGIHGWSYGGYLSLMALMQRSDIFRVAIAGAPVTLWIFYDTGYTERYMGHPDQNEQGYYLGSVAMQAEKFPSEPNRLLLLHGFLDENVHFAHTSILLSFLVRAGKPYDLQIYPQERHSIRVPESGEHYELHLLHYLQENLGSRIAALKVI
In short: as §1

Sequence of DPP4 (P27487 whole entry): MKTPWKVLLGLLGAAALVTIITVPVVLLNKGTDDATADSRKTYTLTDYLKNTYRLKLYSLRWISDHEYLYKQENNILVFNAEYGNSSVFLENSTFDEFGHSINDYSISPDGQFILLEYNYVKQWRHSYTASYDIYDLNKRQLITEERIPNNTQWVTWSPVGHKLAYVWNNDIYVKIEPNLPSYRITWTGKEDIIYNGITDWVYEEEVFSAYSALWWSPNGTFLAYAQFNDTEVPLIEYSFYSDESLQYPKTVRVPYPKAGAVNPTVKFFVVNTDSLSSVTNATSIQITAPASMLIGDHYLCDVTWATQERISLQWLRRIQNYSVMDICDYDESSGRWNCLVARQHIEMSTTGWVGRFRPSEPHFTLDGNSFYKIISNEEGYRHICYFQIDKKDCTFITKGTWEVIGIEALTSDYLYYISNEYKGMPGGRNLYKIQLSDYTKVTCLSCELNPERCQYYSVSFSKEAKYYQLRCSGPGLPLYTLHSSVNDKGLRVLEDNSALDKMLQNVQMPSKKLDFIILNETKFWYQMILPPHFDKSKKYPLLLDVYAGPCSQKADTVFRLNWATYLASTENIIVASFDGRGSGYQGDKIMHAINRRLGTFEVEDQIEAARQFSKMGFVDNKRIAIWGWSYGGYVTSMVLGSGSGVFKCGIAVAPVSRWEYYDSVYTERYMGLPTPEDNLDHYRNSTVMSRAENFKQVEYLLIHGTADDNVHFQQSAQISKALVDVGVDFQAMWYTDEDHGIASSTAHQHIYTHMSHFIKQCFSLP

Structure (SMILES) | IC50 (DPP4) [µM] | IC50 (recombinant human DPP7) [nM] | IC50 (Recombinant human FAP) [nM] | IC50 (recombinant human DPP8) [µM]
N#Cc1cnc2cccc(N[C@H]3CCN(CC(=O)N4CCC[C@H]4C#N)C3)c2c1 [Example 232, 5-[[(3S)-1-[2-oxo-2-[(2S)-2-cyanopyrrolidin-1-yl]ethyl]pyrrolidin-3-yl]amino]quinoline-3-carbonitrile] | > 10 | 7150 | 1.3 | > 100
COc1cnc2cccc(N[C@H]3CCN(CC(=O)N4CCC[C@H]4C#N)C3)c2c1 [Example 233, (2S)-1-[2-[(3S)-3-[(3-methoxy-5-quinolyl)amino]pyrrolidin-1-yl]acetyl]pyrrolidine-2-carbonitrile] | 37.8 | 1070 | 0.7 | 28.1
N#C[C@@H]1CCCN1C(=O)CN1CC[C@H](Nc2ccc(F)c3ncccc23)C1 [Example 244, (2S)-1-[2-[(3S)-3-[(8-fluoro-5-quinolyl)amino]pyrrolidin-1-yl]acetyl]pyrrolidine-2-carbonitrile] | > 10 | 9140 | 2.2 | 32.7
N#Cc1ccc(N[C@H]2CCN(CC(=O)N3CCC[C@H]3C#N)C2)c2cccnc12 [Example 247, 5-[[(3S)-1-[2-oxo-2-[(2S)-2-cyanopyrrolidin-1-yl]ethyl]pyrrolidin-3-yl]amino]quinoline-8-carbonitrile] | > 10 | > 50000 | 1.3 | > 100
N#C[C@@H]1C[C@H](F)CN1C(=O)CN1CC[C@H](Nc2ccc(OC(F)(F)F)c3ncccc23)C1 [Example 266, (2S,4S)-4-fluoro-1-[2-[(3S)-3-[[8-(trifluoromethoxy)-5-quinolyl]amino]pyrrolidin-1-yl]acetyl]pyrrolidine-2-carbonitrile] | 1.31 | 1070 | 0.8 | > 10
N#C[C@@H]1C[C@H](F)CN1C(=O)CN1CCC(Nc2ccc(C(F)(F)F)c3ncccc23)CC1 [Example 334, (2S,4S)-4-fluoro-1-[2-[4-[[8-(trifluoromethyl)-5-quinolyl]amino]-1-piperidyl]acetyl]pyrrolidine-2-carbonitrile] | 7.76 | 404 | 4 | 
N#C[C@@H]1C[C@H](F)CN1C(=O)CN1CCC(Nc2ccc(OC(F)(F)F)c3ncccc23)CC1 [Example 347, (2S,4S)-4-fluoro-1-[2-[4-[[8-(trifluoromethoxy)-5-quinolyl]amino]-1-piperidyl]acetyl]pyrrolidine-2-carbonitrile] | 2.66 | 1010 | 2.2 | 2.62
N#C[C@@H]1C[C@H](F)CN1C(=O)CN1CCC(Nc2cccc3ncc(F)cc23)CC1 [Example 349, (2S,4S)-4-fluoro-1-[2-[4-[(3-fluoro-5-quinolyl)amino]-1-piperidyl]acetyl]pyrrolidine-2-carbonitrile] | 1.89 | 1990 | 1.6 | 2.9
COc1cc2c(NC3CCN(CC(=O)N4C[C@@H](F)C[C@H]4C#N)CC3)cccc2cn1 [Example 355, (2S,4S)-4-fluoro-1-[2-[4-[(3-methoxy-5-isoquinolyl)amino]-1-piperidyl]acetyl]pyrrolidine-2-carbonitrile] | 5.25 | 846 | 2.7 | > 100

Next, values leading:

IC50 (DPP4) [µM] | IC50 (recombinant human DPP7) [nM] | IC50 (Recombinant human FAP) [nM] | IC50 (recombinant human DPP8) [µM] | Structure (SMILES)
> 100 | 387 | 1.21 | 10.8 | N#C[C@@H]1C[C@H](F)CN1C(=O)CN1CC[C@H](Nc2cccc3ncccc23)C1 [Example 228, (2S,4S)-4-fluoro-1-[2-[(3S)-3-(5-quinolylamino)pyrrolidin-1-yl]acetyl]pyrrolidine-2-carbonitrile]
> 10 | 3750 | 1 | > 100 | N#C[C@@H]1CCCN1C(=O)CN1CC[C@H](Nc2ccc(C(F)(F)F)c3ncccc23)C1 [Example 245, (2S)-1-[2-[(3S)-3-[[8-(trifluoromethyl)-5-quinolyl]amino]pyrrolidin-1-yl]acetyl]pyrrolidine-2-carbonitrile]
2.41 | 1850 | 1 | 5.1 | N#C[C@@H]1C[C@H](F)CN1C(=O)CN1CC[C@H](Nc2cccc3ncc(F)cc23)C1 [Example 255, (2S,4S)-4-fluoro-1-[2-[(3S)-3-[(3-fluoro-5-quinolyl)amino]pyrrolidin-1-yl]acetyl]pyrrolidine-2-carbonitrile]
0.792 | 554 | 1.1 | 3.57 | COc1ccc(N[C@H]2CCN(CC(=O)N3C[C@@H](F)C[C@H]3C#N)C2)c2cccnc12 [Example 263, (2S,4S)-4-fluoro-1-[2-[(3S)-3-[(8-methoxy-5-quinolyl)amino]pyrrolidin-1-yl]acetyl]pyrrolidine-2-carbonitrile]
0.574 | 511 | 1 | 1.11 | N#C[C@@H]1C[C@H](F)CN1C(=O)CN1CC[C@H](Nc2ccc(OCc3ccccc3)c3ncccc23)C1 [Example 268, (2S,4S)-4-fluoro-1-[2-[(3S)-3-[(8-benzyloxy-5-quinolyl)amino]pyrrolidin-1-yl]acetyl]pyrrolidine-2-carbonitrile]
3.6 | 612 | 2.1 | 2.44 | COc1cnc2cccc(NC3CCN(CC(=O)N4C[C@@H](F)C[C@H]4C#N)CC3)c2c1 [Example 348, (2S,4S)-4-fluoro-1-[2-[4-[(3-methoxy-5-quinolyl)amino]-1-piperidyl]acetyl]pyrrolidine-2-carbonitrile]
> 10 | 2930 | 2.7 | > 10 | N#C[C@@H]1C[C@H](F)CN1C(=O)CN1CCC(Nc2cccc3cnc(Cl)cc23)CC1 [Example 352, (2S,4S)-1-[2-[4-[(3-chloro-5-isoquinolyl)amino]-1-piperidyl]acetyl]-4-fluoro-pyrrolidine-2-carbonitrile]
> 10 | 4730 | 1.2 | 10.7 | Cc1ccc2nccc(OC3CCN(CC(=O)N4C[C@@H](F)C[C@H]4C#N)CC3)c2c1 [Example 410, (2S,4S)-4-fluoro-1-[2-[4-[(6-methyl-4-quinolyl)oxy]-1-piperidyl]acetyl]pyrrolidine-2-carbonitrile]

Reference: patent US11655235B2, “Pyrrolidine and piperidine compounds” (YUHAN CORPORATION, priority 2019, dated 2023)
